Molecular target: T1, human orexin type 2 receptor (Homo sapiens, UniProt O43614)
T1 construct: expressed in transfected cells
T1 sequence (O43614 1-444): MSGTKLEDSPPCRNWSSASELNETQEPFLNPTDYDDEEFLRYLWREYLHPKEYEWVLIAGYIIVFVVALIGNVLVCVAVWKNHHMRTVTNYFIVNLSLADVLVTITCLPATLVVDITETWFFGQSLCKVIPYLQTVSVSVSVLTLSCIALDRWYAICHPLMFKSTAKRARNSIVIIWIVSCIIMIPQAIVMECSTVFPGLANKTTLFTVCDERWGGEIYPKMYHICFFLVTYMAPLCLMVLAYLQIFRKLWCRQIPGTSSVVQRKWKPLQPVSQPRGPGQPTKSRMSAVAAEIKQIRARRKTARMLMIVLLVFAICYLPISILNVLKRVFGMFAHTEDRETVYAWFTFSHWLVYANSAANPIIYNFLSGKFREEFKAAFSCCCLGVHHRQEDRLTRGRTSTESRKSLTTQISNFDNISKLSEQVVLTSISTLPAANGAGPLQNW
Assay: Measurement of orexin type 2 receptor agonist activity (calcium fluorescence, Fluo-4 AM, FDSS)
Assay type: cell-based
Conditions: test compound 3 μM; CHO cells expressing human OX2 receptor; DMSO = 0%, orexin A (human) = 100%
Source text: To obtain a cell clone stably expressing human orexin type 2 receptor, human orexin type 2 receptor cDNA was inserted into pcDNA3.1(+) plasmid vector (Invitrogen), and a plasmid DNA for expression of human orexin type 2 receptor (pcDNA3.1(+)/hOX2R) was cloned. The plasmid DNA was introduced into CHO-K1 cell by an electroporation method, and human orexin type 2 receptor expressing clone cells were obtained by limiting dilution method by using G418 drug resistance as a selection marker.
CHO cells forcibly expressing human OX2 receptor were seeded in each well of 384 well black transparent bottom plate (BD Falcon) at 10,000 cells/well, and cultured for one day in a 5% CO2 incubator at 37° C. After removal of the medium in the cell plate, assay buffer A containing a calcium indicator (HBSS (Thermo Fisher Scientific), 20 mM HEPES (Thermo Fisher Scientific), 0.1% BSA (Sigma-Aldrich), 2.5 μg/mL Fluo-4 AM (DOJINDO Chemical), 0.08% Pluronic F127 (DOJINDO Chemical), 1.25 mM probenecid (DOJINDO Chemical)) was added at 30 μL/well. The plate was stood for 30 min in a 5% CO2 incubator at 37° C., and further stood at room temperature for 30 min. A test compound prepared by diluting with assay buffer B (HBSS, 20 mM HEPES, 0.1% BSA) was added at 10 μL/well, and the fluorescence value was measured by FDSSμCELL (Hamamatsu Photonics K.K.) every one sec for 1 min, and thereafter every two sec for […]. The activity (%) of the test compound was calculated assuming that variation in the fluorescence value when DMSO was added instead of the test compound was 0%, and variation in the fluorescence value when orexin A (human) (PEPTIDE INSTITUTE, INC.) was added at the final concentration of 10 nM was 100%.

CS(=O)(=O)N[C@@H]1CCCCN(C(=O)C2CC2c2ccccc2-c2c(F)cccc2F)C1 (mixture of isomers) [Example 183, a mixture of N-{(3R)-1-[(1R,2R)-2-(2′,6′-difluoro[1,1′-biphenyl]-2-yl)cyclopropane-1-carbonyl]azepan-3-yl}methanesulfonamide and N-{(3R)-1-[(1S,2S)-2-(2′,6′-difluoro[1,1′-biphenyl]-2-yl)cyclopropane-1-carbonyl]azepan-3-yl}methanesulfonamide]
OX2R agonist activity (3 μM, %): 78%

CS(=O)(=O)N[C@H]1CCCCN(C(=O)C2CC2c2ccccc2-c2c(F)cccc2F)C1 (mixture of isomers) [Example 184, a mixture of N-{(3S)-1-[(1R,2R)-2-(2′,6′-difluoro[1,1′-biphenyl]-2-yl)cyclopropane-1-carbonyl]azepan-3-yl}methanesulfonamide and N-{(3S)-1-[(1S,2S)-2-(2′,6′-difluoro[1,1′-biphenyl]-2-yl)cyclopropane-1-carbonyl]azepan-3-yl}methanesulfonamide]
OX2R agonist activity (3 μM, %): 108%

CS(=O)(=O)N[C@H]1CCN(C(=O)C2CC2c2cccc(F)c2-c2c(F)cccc2F)C1 (mixture of isomers) [Example 192, a mixture of N-{(3S)-1-[(1R,2R)-2-(2′,6,6′-trifluoro[1,1′-biphenyl]-2-yl)cyclopropane-1-carbonyl]pyrrolidin-3-yl}methanesulfonamide and N-{(3S)-1-[(1S,2S)-2-(2′,6,6′-trifluoro[1,1′-biphenyl]-2-yl)cyclopropane-1-carbonyl]pyrrolidin-3-yl}methanesulfonamide]
OX2R agonist activity (3 μM, %): 95%

CS(=O)(=O)N[C@H]1CCCN(C(=O)C2CC2c2cccc(F)c2-c2c(F)cccc2F)C1 (mixture of isomers) [Example 193, a mixture of N-{(3S)-1-[(1R,2R)-2-(2′,6,6′-trifluoro[1,1′-biphenyl]-2-yl)cyclopropane-1-carbonyl]piperidin-3-yl}methanesulfonamide and N-{(3S)-1-[(1S,2S)-2-(2′,6,6′-trifluoro[1,1′-biphenyl]-2-yl)cyclopropane-1-carbonyl]piperidin-3-yl}methanesulfonamide]
OX2R agonist activity (3 μM, %): 98%

CS(=O)(=O)N[C@H]1CCCN(C(=O)C2CC2c2cccc(F)c2-c2c(F)cccc2F)CC1 (mixture of isomers) [Example 194, a mixture of N-{(4S)-1-[(1R,2R)-2-(2′,6,6′-trifluoro[1,1′-biphenyl]-2-yl)cyclopropane-1-carbonyl]azepan-4-yl}methanesulfonamide and N-{(4S)-1-[(1S,2S)-2-(2′,6,6′-trifluoro[1,1′-biphenyl]-2-yl)cyclopropane-1-carbonyl]azepan-4-yl}methanesulfonamide]
OX2R agonist activity (3 μM, %): 100%

CS(=O)(=O)N[C@H]1CCN(C(=O)C2CC2(F)c2ccccc2-c2c(F)cccc2F)C1 (mixture of isomers) [Example 198, a mixture of N-{(3S)-1-[(1R,2R)-2-(2′,6′-difluoro[1,1′-biphenyl]-2-yl)-2-fluorocyclopropane-1-carbonyl]pyrrolidin-3-yl}methanesulfonamide and N-{(3S)-1-[(1S,2S)-2-(2′,6′-difluoro[1,1′-biphenyl]-2-yl)-2-fluorocyclopropane-1-carbonyl]pyrrolidin-3-yl}methanesulfonamide]
OX2R agonist activity (3 μM, %): 101%

CS(=O)(=O)N[C@H]1CCCN(C(=O)C2CC2(F)c2ccccc2-c2c(F)cccc2F)C1 (mixture of isomers) [Example 199, a mixture of N-{(3S)-1-[(1R,2R)-2-(2′,6′-difluoro[1,1′-biphenyl]-2-yl)-2-fluorocyclopropane-1-carbonyl]piperidin-3-yl}methanesulfonamide and N-{(3S)-1-[(1S,2S)-2-(2′,6′-difluoro[1,1′-biphenyl]-2-yl)-2-fluorocyclopropane-1-carbonyl]piperidin-3-yl}methanesulfonamide]
OX2R agonist activity (3 μM, %): 104%

O=C(C1CC1c1ccccc1-c1c(F)cccc1F)N1CCC[C@H](NS(=O)(=O)CF)C1 (mixture of isomers) [Example 207, a mixture of N-{(3S)-1-[(1R,2R)-2-(2′,6′-difluoro[1,1′-biphenyl]-2-yl)cyclopropane-1-carbonyl]piperidin-3-yl}-1-fluoromethanesulfonamide and N-{(3S)-1-[(1S,2S)-2-(2′,6′-difluoro[1,1′-biphenyl]-2-yl)cyclopropane-1-carbonyl]piperidin-3-yl}-1-fluoromethanesulfonamide]
OX2R agonist activity (3 μM, %): 101%

O=C(C1CC1c1ccccc1-c1c(F)cccc1F)N1CCC[C@H](NS(=O)(=O)CBr)C1 (mixture of isomers) [Example 213, a mixture of 1-bromo-N-{(3S)-1-[(1R,2R)-2-(2′,6′-difluoro[1,1′-biphenyl]-2-yl)cyclopropane-1-carbonyl]piperidin-3-yl}methanesulfonamide and 1-bromo-N-{(3S)-1-[(1S,2S)-2-(2′,6′-difluoro[1,1′-biphenyl]-2-yl)cyclopropane-1-carbonyl]piperidin-3-yl}methanesulfonamide]
OX2R agonist activity (3 μM, %): 100%

COCS(=O)(=O)N[C@H]1CCCN(C(=O)C2CC2c2ccccc2-c2c(F)cccc2F)C1 (mixture of isomers) [Example 214, a mixture of N-{(3S)-1-[(1R,2R)-2-(2′,6′-difluoro[1,1′-biphenyl]-2-yl)cyclopropane-1-carbonyl]piperidin-3-yl}-1-methoxymethanesulfonamide and N-{(3S)-1-[(1S,2S)-2-(2′,6′-difluoro[1,1′-biphenyl]-2-yl)cyclopropane-1-carbonyl]piperidin-3-yl}-1-methoxymethanesulfonamide]
OX2R agonist activity (3 μM, %): 95%

COCS(=O)(=O)NC1CCN(C(=O)C2CC2c2ccccc2-c2c(F)cccc2F)C1 (mixture of isomers) [Example 227, a mixture of N-{(3S)-1-[(1R,2R)-2-(2′,6′-difluoro[1,1′-biphenyl]-2-yl)cyclopropane-1-carbonyl]pyrrolidin-3-yl}-1-methoxymethanesulfonamide and N-{(3S)-1-[(1S,2S)-2-(2′,6′-difluoro[1,1′-biphenyl]-2-yl)cyclopropane-1-carbonyl]pyrrolidin-3-yl}-1-methoxymethanesulfonamide]
OX2R agonist activity (3 μM, %): 85%

CS(=O)(=O)NC1CCCN(C(=O)C2CC2c2ccccc2-c2ncccc2F)CC1 (mixture of isomers) [Example 256, a mixture of N-[(4S)-1-{(1R,2R)-2-[2-(3-fluoropyridin-2-yl)phenyl]cyclopropane-1-carbonyl}azepan-4-yl]methanesulfonamide and N-[(4S)-1-{(1S,2S)-2-[2-(3-fluoropyridin-2-yl)phenyl]cyclopropane-1-carbonyl}azepan-4-yl]methanesulfonamide]
OX2R agonist activity (3 μM, %): 52%

CCS(=O)(=O)NC1COCCN(C(=O)[C@@H]2C[C@H]2c2ccccc2-c2c(F)cccc2F)C1 (mixture of isomers) [Example 257]
OX2R agonist activity (3 μM, %): 98%

CC1[C@@H](NS(C)(=O)=O)CCN1C(=O)[C@@H]1C[C@H]1c1ccccc1-c1c(F)cccc1F (mixture of isomers) [Example 261, a mixture of N-{(2R,3R)-1-[(1R,2R)-2-(2′,6′-difluoro[1,1′-biphenyl]-2-yl)cyclopropane-1-carbonyl]-2-methylpyrrolidin-3-yl}methanesulfonamide and N-{(2S,3S)-1-[(1R,2R)-2-(2′,6′-difluoro[1,1′-biphenyl]-2-yl)cyclopropane-1-carbonyl]-2-methylpyrrolidin-3-yl}methanesulfonamide]
OX2R agonist activity (3 μM, %): 88%

C[C@]1(NS(C)(=O)=O)CCN(C(=O)[C@@H]2C[C@H]2c2ccccc2-c2c(F)cccc2F)C1 (mixture of isomers) [Example 286, a mixture of N-{(3R)-1-[(1R,2R)-2-(2′,6′-difluoro[1,1′-biphenyl]-2-yl)cyclopropane-1-carbonyl]-3-methylpyrrolidin-3-yl}methanesulfonamide and N-{(3S)-1-[(1R,2R)-2-(2′,6′-difluoro[1,1′-biphenyl]-2-yl)cyclopropane-1-carbonyl]-3-methylpyrrolidin-3-yl}methanesulfonamide]
OX2R agonist activity (3 μM, %): 96%
